Experimental findings from ChEMBL document CHEMBL5528028, “Discovery of benzopyridone cyanoacetates as new type of potential broad-spectrum antibacterial candidates” (Eur J Med Chem, 2024) are described below.

Values after ≈ are worked out from the molar mass of the structure shown. Active and inactive are the calls of the source. No cut-off for these calls is given here.

Data set [1] deals with Escherichia coli. The data set can be described thus: Antibacterial activity against Escherichia coli ATCC 25922 assessed growth inhibition by micro broth dilution method. Type of data set: functional. In general terms: Dilution methods test growth across graded concentrations, often in twofold steps.
The test system of data set [2] is Pseudomonas aeruginosa. Put plainly: Antibacterial activity against Pseudomonas aeruginosa assessed growth inhibition by micro broth dilution method. Format: functional.
In data set [3] the test system is Staphylococcus aureus. Put plainly: Antibacterial activity against Staphylococcus aureus assessed growth inhibition by micro broth dilution method. Format: functional.
Data set [4] has as its system Staphylococcus aureus. The data set can be described thus: Antibacterial activity against methicillin-resistant Staphylococcus aureus assessed growth inhibition by micro broth dilution method. Format: functional.
Data set [5] relates to Staphylococcus aureus. The data set can be described thus: Antibacterial activity against Staphylococcus aureus ATCC 29213 assessed growth inhibition by micro broth dilution method. Format: functional.
Data set [6] deals with Pseudomonas aeruginosa. The data set can be described thus: Antibacterial activity against Pseudomonas aeruginosa ATCC 27853 assessed growth inhibition by micro broth dilution method. Format: functional.
For data set [7], the system named is Enterococcus faecalis. The data set can be described thus: Antibacterial activity against Enterococcus faecalis assessed growth inhibition by micro broth dilution method. Type of data set: functional.
A short description of data set [8]: Hemolytic activity in human RBC assessed as hemolytic rate incubated measured upto 64 ug/ml. As to conditions: human red blood cells (erythrocytes), up to 64 µg/mL, read-out: Activity. Type of data set: toxicity, cell-based, Erythrocyte.
The test system of data set [9] is Staphylococcus aureus. Put plainly: Antibacterial activity against Staphylococcus aureus ATCC 25923 assessed growth inhibition by micro broth dilution method. Format: functional.
For data set [10], the system named is Escherichia coli. The data set can be described thus: Antibacterial activity against Escherichia coli assessed growth inhibition by micro broth dilution method. Format: functional.
Data set [11] has as its system Klebsiella pneumoniae. The data set can be described thus: Antibacterial activity against Klebsiella pneumonia assessed growth inhibition by micro broth dilution method. Type of data set: functional.
For data set [12], the system named is Acinetobacter baumannii. The data set can be described thus: Antibacterial activity against Acinetobacter baumannii assessed growth inhibition by micro broth dilution method. Type of data set: functional.
Data set [13] deals with Erythrocyte. Put plainly: Hemolytic activity in human RBC incubated measured upto 128 ug/ml. Type of data set: toxicity, cell-based. As to conditions: dose < 128 µg/ml.
Data set [14] can be described thus: Cytotoxicity against human NOK cells assessed as cell viability at 8 ug/ml. Type of data set: toxicity, cell-based. The note with it: nok-si, dose 8 µg/ml.
Data set [15] in a line: Cytotoxicity against human FHC cells assessed as cell viability at 8 ug/ml. Format: toxicity, cell-based. As to conditions: at 8 µg/mL, read-out: Activity.
Data set [16] has as its system Staphylococcus aureus. The data set can be described thus: Bactericidal activity against Staphylococcus aureus ATCC 29213 assessed as time dependent killing at 4 times of MIC measured at 8 hrs. Type of data set: functional, organism-based.
Data set [17] has as its system Klebsiella pneumoniae. Put plainly: Bactericidal activity against Klebsiella pneumonia assessed as time dependent killing at 4 times of MIC measured at 8 hrs. Format: functional, organism-based.
Data set [18] concerns Klebsiella pneumoniae. Put plainly: Induction of ROS generation in Klebsiella pneumonia assessed as loss of GSH activity by Ellmans method. Type of data set: functional, organism-based.
Data set [19] concerns Klebsiella pneumoniae. Put plainly: Antibacterial activity against Klebsiella pneumonia assessed as decrease in relative metabolic activity at 4 times of MIC by Alamar Blue assays. Format: functional, organism-based. Background: The colour change of resazurin is a common sign of viable cells or microbes.
Data set [20] relates to Cell membrane. The data set can be described thus: Induction of disruption of membrane integrity in Klebsiella pneumonia assessed as leakage of intracellular proteins by Acid Blue 90 based assay. Type of data set: cell membranes. As to conditions: Klebsiella pneumoniae.
In data set [21] the test system is Cell membrane. The data set can be described thus: Induction of outer membrane permeability in Klebsiella pneumonia assessed as increase in fluorescence intensity at 2 times of MIC by N-phenyl naphthylamine (NPN) dye based assay. Format: cell membranes. As to conditions: Klebsiella pneumoniae.
The test system of data set [22] is Cell membrane. Put plainly: Induction of cytoplasmic membrane depolarization in Klebsiella pneumonia assessed as increase in fluorescence intensity at 2 times of MIC measured upto 40 mins by DiSC35 dye based fluorescence method. Format: cell membranes. The note with it: Klebsiella pneumoniae.
In data set [23] the test system is Cell membrane. Put plainly: Induction of cytoplasmic membrane depolarization in Staphylococcus aureus ATCC 29213 assessed as increase in fluorescence intensity at 2 times of MIC measured upto 40 mins by DiSC35 dye based fluorescence method. Type of data set: cell membranes.
The subject of data set [24] is Staphylococcus aureus. The data set can be described thus: Induction of ROS generation in Staphylococcus aureus ATCC 29213 assessed as loss of GSH activity by Ellmans method. Format: functional, organism-based. (In general: Ellman's reagent forms a yellow product with free thiols.)
In data set [25] the test system is Staphylococcus aureus. Put plainly: Induction of ROS generation in Staphylococcus aureus ATCC 29213 assessed as increase in fluorescence intensity by DCFH-DA based microscopic analysis. Format: functional, organism-based.
Data set [26] relates to Cell membrane. Put plainly: Induction of disruption of membrane integrity in Staphylococcus aureus ATCC 29213 assessed as leakage of intracellular proteins by Acid Blue 90 based assay. Type of data set: cell membranes.
The subject of data set [27] is Klebsiella pneumoniae. Put plainly: Induction of ROS generation in Klebsiella pneumonia assessed as increase in fluorescence intensity by DCFH-DA based microscopic analysis. Format: functional, organism-based.
Data set [28] deals with Staphylococcus aureus. Put plainly: Antibacterial activity against Staphylococcus aureus ATCC 29213 assessed as decrease in relative metabolic activity at 4 times of MIC by Alamar Blue assays. Type of data set: functional, organism-based.
Data set [29] concerns Calf thymus DNA. Put plainly: Binding affinity to calf thymus DNA assessed as change in absorption by UV-Vis absorption spectra analysis. Format: nucleic-acid assay. The note with it: Bos taurus.
In data set [30] the test system is Staphylococcus aureus. Put plainly: Anti-biofilm activity against Staphylococcus aureus ATCC 29213 assessed as relative biofilm clearance rate by crystal violet staining based assay. Type of data set: functional, organism-based.
Data set [31] deals with Cell membrane. Put plainly: Induction of inner membrane permeability in Staphylococcus aureus ATCC 29213 assessed as increase in fluorescence intensity by propidium iodide uptake based microscopic imaging assay. Format: cell membranes.
Data set [32] relates to Cell membrane. The data set can be described thus: Induction of inner membrane permeability in Klebsiella pneumonia assessed as increase in fluorescence intensity by propidium iodide uptake based microscopic imaging assay. As to conditions: Klebsiella pneumoniae. Format: cell membranes.
Data set [33] concerns Calf thymus DNA. Put plainly: Induction of calf thymus DNA double helix loss assessed as reduction in fluorescence intensity at 525 nm wavelength by acridine orange competition based assay. Type of data set: nucleic-acid assay. As to conditions: Bos taurus.
The subject of data set [34] is Klebsiella pneumoniae. Put plainly: Induction of resistance development in Klebsiella pneumonia assessed as after 20 passages measured upto 4.5 times of MIC. Type of data set: functional.
In data set [35] the test system is Staphylococcus aureus. Put plainly: Antibacterial activity against Staphylococcus aureus ATCC 29213 assessed as morphological changes by measuring shrunken and cracked cells at 4 times of MIC by SEM microscopic analysis. Type of data set: functional, organism-based.
Data set [36] concerns Klebsiella pneumoniae. The data set can be described thus: Antibacterial activity against Klebsiella pneumonia assessed as morphological changes by measuring shrunken and cracked cells at 4 times of MIC by SEM microscopic analysis. Format: functional, organism-based.
In data set [37] the test system is Staphylococcus aureus. The data set can be described thus: Induction of resistance development in Staphylococcus aureus ATCC 29213 assessed as after 20 passages measured upto 4.5 times of MIC. Format: functional.
The subject of data set [38] is Klebsiella pneumoniae. The data set can be described thus: Anti-biofilm activity against Klebsiella pneumonia assessed as relative biofilm clearance rate by crystal violet staining based assay. Type of data set: functional, organism-based.

As a reminder, the MIC is the least concentration at which growth counts as inhibited. A higher MIC goes with a need for much substance. In the case of `CCCCCCCCn1cc(C(=O)OCC)c(=O)c2cc(F)c(C(C#N)C(=O)OCC)cc21` (stereo not given) [listing 1 of 2 here], the minimal inhibitory concentration (MIC) in [1] was 2 µg/mL (≈ 4.36 µM); in data set [2], 0.5 µg/mL (≈ 1.09 µM); in data set [3], 8 µg/mL (≈ 17.4 µM); in [4] it was 8 µg/mL (≈ 17.4 µM); in data set [5], 0.5 µg/mL (≈ 1.09 µM); in data set [6] it was 0.5 µg/mL (≈ 1.09 µM). The MIC in [7] stood at 4 µg/mL (≈ 8.72 µM); in data set [9], 1 µg/mL (≈ 2.18 µM); in [10], 2 µg/mL (≈ 4.36 µM); in [11], 0.5 µg/mL (≈ 1.09 µM); in data set [12] it was 0.5 µg/mL (≈ 1.09 µM). Besides, the hemolysis in data set [8] was 50%.
As for `CCOC(=O)c1cn(Cc2ccc(Cl)cc2Cl)c2cc([C-](C#N)C(=O)OCC)c(F)cc2c1=O.[Na+]` (stereo not given), the minimum inhibitory concentration (MIC) in data set [1] was 0.25 µg/mL; in data set [2] it was 4 µg/mL; in [3], 32 µg/mL; in data set [4] it was 16 µg/mL; in data set [5], 0.25 µg/mL; in data set [6], 0.5 µg/mL. For the same compound, the MIC was 1 µg/mL in data set [7]; 0.25 µg/mL in data set [9]; 0.5 µg/mL in data set [10]; 0.25 µg/mL in data set [11]; 2 µg/mL in data set [12]. Moreover, the Activity entry in data set [13] and in [14] was “Non-Toxic” each time. For the same compound, in data set [15], the viability at 8 ug/ml came out at 70%.
Turning to `CCOC(=O)C(C#N)c1cc2c(cc1F)c(=O)c(C(=O)O)cn2C1CC1` (stereo not given), the MIC in data set [1] came out at 0.5 µg/mL (≈ 1.4 µM); in [2] it was 16 µg/mL (≈ 44.7 µM); in [3], 0.5 µg/mL (≈ 1.4 µM); in data set [4], 2 µg/mL (≈ 5.58 µM); in [5], 0.5 µg/mL (≈ 1.4 µM); in data set [6], 4 µg/mL (≈ 11.2 µM). For the same compound, the MIC in data set [7] worked out at 64 µg/mL (≈ 179 µM); in data set [9] it was 8 µg/mL (≈ 22.3 µM); in data set [10], 32 µg/mL (≈ 89.3 µM); in data set [11], 0.25 µg/mL (≈ 0.698 µM); in data set [12], 1 µg/mL (≈ 2.79 µM). In addition, the result in data set [16], in data set [17], in data set [19], in data set [22] (DISRUPTING AGENT), in [23] and in [28] was Active. For the same compound, the Activity result in data set [18] was “Dose-Dependent Effect”; in data set [13], “Non-Toxic”; in data set [20], “Dose-Dependent Effect”; in data set [21], “Dose-Dependent Effect”; in [24] it was “Dose-Dependent Effect”; in data set [25], “Dose-Dependent Effect”. Also, the Activity result in [26] and in [27] was “Dose-Dependent Effect” throughout.
For the compound `CCCCCCCCn1cc(C(=O)OCC)c(=O)c2cc(F)c(C(C#N)C(=O)OCC)cc21` (stereo not given) [listing 2 of 2 here], the outcome in [29], in data set [16], in data set [17], in data set [19], in data set [33] and in data set [34] was Active. For the same compound, the result in data set [35], in data set [36], in data set [37], in data set [22], in [22] (DISRUPTING AGENT) and in [23] was Active. The outcome in data set [28] was Active. In addition, the Activity result in data set [30], in data set [18], in data set [31], in [32], in [20] and in data set [38] was “Dose-Dependent Effect” each time. Also, the Activity result in data set [21], in [24], in [25], in [26] and in data set [27] was “Dose-Dependent Effect” in each case.
